Patent US20240207414A1, “DISULFIDE-BASED PRODRUG COMPOUND” (Ludwig-Maximilians-Universitat Munchen, priority 2021, published 2024)
One block for each compound: values may come before it.

Key:
HeLa cells = assay: In vitro cell viability assay P21, P22 (resazurin); format: cell-based, human; settings: 48 h
Protocol: (§1) Assay Conditions: Cells (A549 cells for P19 and P20; HeLa cells for P21 and P22) were cultured under standard conditions (Gao, L. et al. Cell Chemical Biology 2021, 28, 1-14. https://doi.org/10.1016/j.chembiol.2020.11.007), left to adhere for 24 h, then P19, P20, P21 or P22 were added from DMSO stock solution and adjusted to 1% vol DMSO. Cells were incubated under standard conditions for 48 h, then 0.20 volume equivalents of a solution of resazurin in PBS (0.15 mg/mL) were added and incubated for 3 hours, then fluorescence (ex 544 nm, em 590 nm) was detected on a fluorescence platereader. Cell viability (%) was calculated relative to a control experiment (no compound) from the fluorescence values.

[1] = Chemical reductant assay: GSH challenge (cell-free); format: physicochemical; settings: aq. TE buffer pH 7.4, 37° C., 6 h, GSH 0.01-10 mM
From the text: (§2) This assay (see FIG. 1) examined the stability of disulfide-based reduction-triggered compounds of the invention when exposed to monothiol reductants, primarily the major physiological cellular monothiol GSH, and dithiol reductants like the disulfide reductant dithiothreitol (DTT), as evaluated in a cell-free assay, to determine whether these compounds can be useful for selective release.
(§3) Assay Conditions: A black 96-well plate with black bottom was charged with solutions of fluorophore-releasing reduction-triggered probes that are compounds of the invention (P1, P2, P3, P4 and P5) or that are not compounds of the invention and reveal the performance of prior art systems (X19) (80 μL; 25 μM in aq. TE buffer (pH 7.4) and 1.25% vol DMSO). Solutions of challenge species chosen from the monothiol glutathione (GSH, 0.1-50 mM) and the dithiol reductant dithiothreitol (DTT, 0.1-50 mM) or phosphine reductant tris-(2-carboxyethyl) phosphine (TCEP); (20 μL; 1 mM in aq. TE buffer (pH 7.4) were added and the reaction mixtures were incubated at 37° C. for 6 h while measuring fluorescence intensity over time [F(t)] using a BMG Labtech FLUOstar Omega platereader (λexc=355 nm, Δem=530 nm for PQ-OH-releasing probes X19, P1 and P2; Δexc=485 nm, Δem=530 nm for MF-OH-releasing probes P3 and P4.
(§4) Data Representation: F^max is the maximum possible fluorescence increase corresponding to complete reduction-triggered cargo release, i.e. the fluorescence intensity increase from time zero to signal plateau under TCEP incubation PQ-OH-releasing probes. F(t)/F^max(t) thus gives the timecourse measurements of fluorescence intensity, as a fraction of the maximum possible fluorescence signal. F^sat is the endpoint fluorescence intensity increase for each condition, ie. F^sat=(F(6 h)). F^sat/F^max thus gives the assay endpoint fluorescence intensity increase, as a fraction of the maximum possible fluorescence signal. In the GSH timecourse measurements shown in FIG. 1, all datasets annotated with concentrations only (0.01-10 mM) refer to GSH challenges, while datasets for TCEP positive control (100 μM) and no-reductant control (blank) are shown for comparison. The dose-response plots show F^sat/F^max for the different ratios between probe and GSH or probe and DTT concentrations, with a logarithmic horizontal scale.

[2] = Chemical reductant assay: DTT challenge (cell-free); format: physicochemical; settings: aq. TE buffer pH 7.4, 37° C., 6 h
From the text: as §2, §3, §4

HeLa, A549 and MEF cells = assay: Cellular reduction assay (FIG. 3); format: cell-based, human, mouse; settings: 100 μM, 1% vol DMSO, cells under ordinary conditions
Protocol: Assay Conditions: Cells were cultured under standard conditions (Gao, L. et al. Cell Chemical Biology 2021, 28, 1-14. https://doi.org/10.1016/j.chembiol.2020.11.007), left to adhere for 24 h, then compounds were added to 100 μM with 1% vol DMSO. Fluorescence timecourse measurements were acquired as in the chemoreductant assay, with all conditions in triplicates.
Data Representation: F(t)-F(0) is the fluorescence intensity signal increase as compared to time zero signal (fluorescence intensity immediately following compound addition, before probe activation can occur), in arbitrary units although with the same detection settings for all probes releasing the same cargo. This corresponds to reduction-triggered cargo release. “ctrf” indicates cells not treated with probes, as a negative control.

[3] = system: MEF cells with genetic knockout of TrxR (TrxR ko); assay: In vitro TrxR knockout assay: TrxR1 knockout MEF viability; format: cell-based, mouse; settings: MEF TrxR ko versus fl/fl, 48 h, resazurin
Protocol: (§5) Assay Conditions: TrxR1 knockout and reference mouse embryonic fibroblasts (MEF) were a gift by Marcus Conrad (LMU Munich) and initially isolated from conditional TrxR1 knockout mouse embryos, were immortalised by lentiviral transduction. In vitro deletion of TrxR1 was achieved by Tat-Cre induced recombination and verified by PCR and Immunoblotting for TrxR1 as described in Conrad et al. Cancer Res. 2010, 70, 22, 9505. MEF knockout (ko) and control (fl/fl) cells were cultured under standard conditions, left to adhere for 24 h, then P17 or P18 were added from DMSO stock solution and adjusted to 1% vol DMSO. Cells were incubated under standard conditions for 48 h, then 0.20 volume equivalents of a solution of resazurin in PBS (0.15 mg/mL) were added and incubated for 3 h, then fluorescence (ex 544 nm, em 590 nm) was detected on a fluorescence platereader. Cell viability (%) is calculated relative to a control experiment with no P17 or P18 added, from the fluorescence values.

[4] = system: control MEF cells (fl/fl); assay: In vitro TrxR knockout assay: control MEF (fl/fl) viability; format: cell-based; settings: Mus musculus, 48 h, resazurin, read-out: IC50 antiproliferation / cell viability
Protocol: as §5

A549 cells = assay: In vitro cell viability assay P19, P20 (resazurin); format: cell-based, human; settings: 48 h
Protocol: as §1

SMILES: CC[C@@]1(O)C(=O)OCc2c1cc1n(c2=O)Cc2cc3c(CN(C)C)c(OC(=O)N4CCCC5CSSC[C@H]54)ccc3nc2-1 (mixture of isomers) [Compound P21, (R)-10-((dimethylamino)methyl)-4-ethyl-4-hydroxy-3,14-dioxo-3,4,12,14-tetrahydro-1H-pyrano[3′,4′:6,7]indolizino[1,2-b]quinolin-9-yl (cis)-hexahydro-[1,2]dithiino[4,5-b]pyridine-1(2H)-carboxylate]
tolerability in cells compared with Irinotecan (HeLa cells): equally well-tolerated in cells as the approved cancer prodrug Irinotecan
toxicity to cells compared with SN-38 (HeLa cells): significantly less toxic to cells than the parent compound

cargo release (fluorescence) when challenged with monothiol reductant GSH [1]: do not release cargo
SMILES: COc1ccc2c(c1)Oc1cc(OC(=O)N3CCC[C@@H]4CSSC[C@@H]43)ccc1C21OC(=O)c2ccccc21 (mixture of isomers) [Compound P4, 3′-methoxy-3-oxo-3H-spiro[isobenzofuran-1,9′-xanthen]-6′-yl-cis-hexahydro-[1,2]dithiino[4,5-b]pyridine-1(2H)-carboxylate]
activation / cargo release by dithiol reductant DTT [2]: efficiently activated by dithiol-type reductants
cargo release inside cells (fluorescence signal increase over time) (HeLa, A549 and MEF cells): do not release cargo inside cells under ordinary conditions

SMILES: CC[C@@]1(O)C(=O)OCc2c1cc1n(c2=O)Cc2cc3c(CN(C)C)c(OC(=O)N4CCCC5CSSC[C@@H]54)ccc3nc2-1 (mixture of isomers) [Compound P22, (R)-10-((dimethylamino)methyl)-4-ethyl-4-hydroxy-3,14-dioxo-3,4,12,14-tetrahydro-1H-pyrano[3′,4′:6,7]indolizino[1,2-b]quinolin-9-yl (trans)-hexahydro-[1,2]dithiino[4,5-b]pyridine-1(2H)-carboxylate]
tolerability in cells compared with Irinotecan (HeLa cells): equally well-tolerated in cells as the approved cancer prodrug Irinotecan
toxicity to cells compared with SN-38 (HeLa cells): significantly less toxic to cells than the parent compound

SMILES: COc1cc2cc(C(=O)N3C[C@@H](CCl)c4c3cc(OC(=O)N3CCN(C)[C@@H]5CSSCC53)c3ccccc43)[nH]c2c(OC)c1OC (mixture of isomers) [Compound P17, (S)-1-(chloromethyl)-3-(5,6,7-trimethoxy-1H-indole-2-carbonyl)-2,3-dihydro-1H-benzo[e]indol-5-yl (cis)-4-methylhexahydro-[1,2]dithiino[4,5-b]pyrazine-1(2H)-carboxylate]
activation / cytotoxicity in TrxR ko cells compared to control cells [3]: activated less effectively
IC50 [4]: ~0.1 µM

SMILES: CCc1c2c(nc3ccc(OC(=O)N4CCN[C@@H]5CSSC[C@@H]54)cc13)-c1cc3c(c(=O)n1C2)COC(=O)[C@]3(O)CC (racemic) [Compound P19, (R)-4,11-diethyl-4-hydroxy-3,14-dioxo-3,4,12,14-tetrahydro-1H-pyrano[3′,4′:6,7]indolizino[1,2-b]quinolin-9-yl (cis)-hexahydro-[1,2]dithiino[4,5-b]pyrazine-1(2H)-carboxylate]
tolerability in cells compared with Irinotecan (A549 cells): equally well-tolerated in cells as the approved cancer prodrug Irinotecan
toxicity to cells compared with SN-38 (A549 cells): significantly less toxic to cells than the parent compound

SMILES: COc1cc2cc(C(=O)N3C[C@@H](CCl)c4c3cc(OC(=O)N3CCN(C(=O)CCC(=O)N5CCN(C)CC5)[C@@H]5CSSCC53)c3ccccc43)[nH]c2c(OC)c1OC (mixture of isomers) [Compound P18, (S)-1-(chloromethyl)-3-(5,6,7-trimethoxy-1H-indole-2-carbonyl)-2,3-dihydro-1H-benzo[e]indol-5-yl (cis)-4-(4-(4-methylpiperazin-1-yl)-4-oxobutanoyl)hexahydro-[1,2]dithiino[4,5-b]pyrazine-1(2H)-carboxylate]
activation / cytotoxicity in TrxR ko cells compared to control cells [3]: activated less effectively
IC50 [4]: ~0.1 µM

SMILES: CCc1c2c(nc3ccc(OC(=O)N4CCN(C(=O)CCC(=O)N5CCN(C)CC5)[C@@H]5CSSC[C@@H]54)cc13)-c1cc3c(c(=O)n1C2)COC(=O)[C@]3(O)CC (racemic) [Compound P20, (R)-4,11-diethyl-4-hydroxy-3,14-dioxo-3,4,12,14-tetrahydro-1H-pyrano[3′,4′:6,7]indolizino[1,2-b]quinolin-9-yl (cis)-4-(4-(4-methylpiperazin-1-yl)-4-oxobutanoyl)hexahydro-[1,2]dithiino[4,5-b]pyrazine-1(2H)-carboxylate]
tolerability in cells compared with Irinotecan (A549 cells): equally well-tolerated in cells as the approved cancer prodrug Irinotecan
toxicity to cells compared with SN-38 (A549 cells): significantly less toxic to cells than the parent compound

SMILES: O=C(Oc1ccc(Cl)cc1-c1nc2ccc(Cl)cc2c(=O)[nH]1)N1CCN[C@@H]2CSSC[C@H]21 (racemic) [Compound P5, 4-chloro-2-(6-chloro-4-oxo-3,4-dihydroquinazolin-2-yl)phenyl trans-hexahydro-[1,2]dithiino[4,5-b]pyrazine-1(2H)-carboxylate]
cargo release (fluorescence) when challenged with monothiol reductant GSH [1]: does release cargo very efficiently
activation / cargo release by dithiol reductant DTT [2]: unusually strong and fast response
cargo release inside cells (fluorescence signal increase over time) (HeLa, A549 and MEF cells): substantially release cargo inside cells cultured under ordinary conditions

cargo release (fluorescence) when challenged with monothiol reductant GSH [1]: do not release cargo
SMILES: COc1ccc2c(c1)Oc1cc(OC(=O)N3CCC[C@@H]4CSSC[C@H]43)ccc1C21OC(=O)c2ccccc21 (mixture of isomers) [Compound P3, 3′-methoxy-3-oxo-3H-spiro[isobenzofuran-1,9′-xanthen]-6′-yl-(trans)-hexahydro-[1,2]dithiino[4,5-b]pyridine-1(2H)-carboxylate]
activation / cargo release by dithiol reductant DTT [2]: efficiently activated by dithiol-type reductants
